Assay results published in patent US20060257368A1, “Devices and methods for improved viability of cells” (Clemson University, priority 2005, published 2006).

How the values were obtained:
[1] = system: Human umbilical cord stem cells; assay: Survival of stem cells transplanted into brain tissue after exposure to a hypoxia simulating agent; assay type: in vivo; details: cells exposed to 50 uM/ml for 12 hours before transplantation into brain tissue; vs untreated group
Experimental: Human umbilical cord stem cells were exposed to 50 uM/ml ethyl 3,4-dihydroxybenzoate for 12 hours before transplanted into brain tissue to improve their tolerance to hypoxia condition at the injection site after transplantation procedure. Ethyl 3,4-dihydroxybenzoate can increase glucose uptake and glycolytic metabolism of cells. Increased glucose uptake and glycolytic metabolism is an important compensatory mechanism that allows ATP production to be maintained. Such an approach also increases resistance of the transplanted cells to metabolic poison. The resulting transplanted cells will be adjusted to a deficiency of oxygen and, thus, more resistant to transplantation procedures. The survival rate of the transplanted cells is higher for ethyl 3,4-dihydroxybenzoate treated group than that for untreated group.

[2] = system: adult Fischer 344 male rat brains; assay: Adult brain tissue reaction to PNPX loaded HFMs implanted into rat brain (immunohistochemistry); assay type: in vivo; details: constant release into local brain tissue, compared to blank control HFM; anti-GFAP and anti-CSPG staining; FIG. 6
From the text: Following adult central nervous system (CNS) injury, resident cells and blood-derived inflammatory cells become activated and migrate to the lesion site, eventually form a dense glial scar that is believed to play a significant role in inhibiting CNS regeneration. The inhibitory nature of the glial scar is due not only to the existence of inflammatory cell types, but also to the ECM molecules that are derived from them. […] Blocking CSPG biosynthesis may be a potential means to ameliorate CNS glial scar formation. […] CSPG inhibitor 4-nitrophenyl-β-D-xylopyranoside (PNPX) was incorporated into the HFMs during the fabrication process. The inflammatory responses of adult brain tissue to the HFMs with or without PNPX were evaluated and compared.
Polyacrylonitrile/polyvinylchloride copolymer (PAN/PVC) was used as a model non-degradable polymer as a carrier for PNPX delivery, and poly(DL-Lactide-co-glycolide) (PLGA) 50/50 copolymers was employed as a model degradable polymer for PNPX delivery. Polymer-PNPX was dissolved in dimethyl sulfoxide (DMSO). 1% phthalized-chitosan was added into the solution to enhance the PNPX loading efficiency. PNPX loaded HFMs were fabricated using a wet phase-inversion technique. PNPX loading efficiency and releasing profiles were studied in vitro using HPLC. […]

SMILES | survival rate of the transplanted cells [1] | glial scarring response in the vicinity of the PNPX loaded HFM [2]
CCOC(=O)c1ccc(O)c(O)c1 [ethyl 3,4-dihydroxybenzoate] | higher | –
O=[N+]([O-])c1ccc(O[C@@H]2OC[C@@H](O)[C@H](O)[C@H]2O)cc1 [PNPX, 4-nitrophenyl-β-D-xylopyranoside] | – | significantly (P<0.05) suppressed
